Results as given in patent US20110144565A1, “COMBINATION OF A TILIROSIDE AND A PEPTIDE” (LABORATOIRES CLARINS, priority 2008, published 2011).

Test system: collagen type I synthesis in normal adult human fibroblasts
Assay: Immunolocalization of collagen type I in normal adult human fibroblasts (immunofluorescence, image analysis)
Assay type: cell-based
Conditions: 2×10^−3% palmitoyl lysine-valine-5 diaminohydroxybutyrate (P1), 72 hours, Anova
Protocol: The fibroblasts were seeded into 6-well plates with a glass coverslip in a proportion of 70 000 cells per dish, in MEM (Minimum Essential Medium). […] Each cell layer was then rinsed and fixed with methanol (−20° C.) before visualizing the collagen type I by immunofluorescence. […] The incubation time between each antibody is 1 hour. The cell nuclei are visualized by means of Dapi labeling. The coverslips are mounted on glass slides and then observed under a fluorescence microscope (Nikon Eclipse 50i). Photographs are taken of several fields of the cell population. The TRITC fluorescence images indicate the regions of localization of collagen type I. The DAPI fluorescence images indicate the cell nuclei and therefore the number of cells per field. The photographic images are analyzed using the Lucia image analysis software. The intensity of collagen labeling was observed on 14 and 15 photographic images according to the conditions. This fluorescence intensity is related to the number of cells per image. The differences in mean between the populations were studied by analysis of variance (Anova). This method uses measurements of variance in order to determine the significant or nonsignificant nature of the differences in mean measured on the populations.

In the case of “palmitoyl lysine-valine-5 diaminohydroxybutyrate”, the “collagen type I labeling (fluorescence intensity related to the number of cells) compared with the nontreated control” value is reported as “statistically significant (p<0.0001) increase in collagen”.
